Reference: BindingDB's records for doi:10.1016/s0960-894x(00)00282-1 (Novartis Horsham Research Centre, 2000)

Test: Compound was evaluated for its inhibitory activity against Serine protease chymotrypsin

| Ki [µM] | SMILES |
| --- | --- |
| 7.55 | CC1CNc2c(cccc2S(=O)(=O)N[C@@H](Cc2nc3ccccc3s2)C(=O)N2CCC(CCO)CC2)C1 (stereo partly drawn) [3-Methyl-1,2,3,4-tetrahydro-quinoline-8-sulfonic acid {(S)-1-benzothiazol-2-ylmethyl-2-[4-(2-hydroxy-ethyl)-piperidin-1-yl]-2-oxo-ethyl}-amide] |
| 4.91 | CCC1CCN(C(=O)C(Cc2nc3ccccc3s2)NS(=O)(=O)c2cccc3c2NCC(C)(C)C3)CC1 (configuration not stated) [MD805 Analogue] |
